Measured values published in patent US11179397B2, “Imidazopyrimidine derivatives” (Gilead Sciences, Inc., priority 2018, dated 2021).
Like-named read-outs stand apart in the source and are kept apart here.

What was measured:
NCI-H358 cells = experiment: NCI-H358 3D tumor spheroid growth inhibition; type: cell-based; details: 3D spheroids, 7 days, 3D CellTiter Glo, cellular IC50 designated EC50, read-out: H358 EC50
Text: SHP-2 Cell Based Assay: […] Materials NCI-H358 cell line was purchased from [NT] number ATCC CRL-5807) (Manassas, Va.). RPMI-1640 (Catalog number 10-040-CM) was from Corning Cellgro (Manassas, Va.), Fetal Bovine Serum (FBS) (Catalog number SH30071.03) was from HyClone (Logan, Utanh), and 100× Penicillin/Streptomycin/L-Glutamine stock (Catalog no. 30-009-CI) and 384-well ULA plates (Catalog number 3830) were from Corning (Fremont, Calif.). Method […] At the day of assay, the cells were trypsinized and seeded at 1000 cells/70 μl/well in 384-well ULA plates and incubated at 37° C. incubator with 5% CO2 to allow spheroids to form. […] The plates were incubated for additional 7 days. Then 35 μl of medium from each well was removed, and replaced with 35 μl of 3D CellTiter Glo reagent from Promega. The wells were mixed by pipetting up and down with Biomek FX for 15 times to induce cell lysis and the plates were incubated at room temperature for additional 10 min to stabilize luminescent signal. The luminescence was then read by Envision. The inhibitor dose response curves were generated using normalized cellular IC50 (designated as EC50 in all FIGURES to distinguish from biochemical IC50s) by in house dose response analyses tools. The wells with DMSO vehicle were used as negative controls (0% inhibition). The % inhibition of SHP-2 compounds was calculated as: 100-[(Compound well luminescence counts/DMSO luminescence counts)×100%].

[1] = molecular target: SHP-2 full length protein (Homo sapiens (Human), UniProt Q06124); experiment: SHP-2 biochemical DiFMUP pseudosubstrate-fluorogenic assay; details: 0.2 nM SHP-2, 1 μM IRS-1 activator peptide, 50 μM DiFMUP; read-out: SHP2 IC50
Experimental: SHP-2 Biochemical Assay Materials Recombinant SHP-2 full length protein was generated in house. SHP-2 protein tyrosine phosphatase (PTP) domain protein (Catalog number SPR0217-20 ug), NaCl (Catalog number S6546-1L), and KCl (Catalog number 60142-500 mL) were purchased from Sigma-Aldrich (St. Louis, Mo.). IRS-1_[…](dPEG8)[…] peptide […]) was custom made by AnaSpec (Fremont, Calif.). DiFMUP substrate (Catalog number D6567), EDTA (Catalog number E177-500 mL), DTT (Catalog number P2325), and 384-well black polystyrene non-binding surface (Catalog number 3820) were purchased from Fisher Scientific (Hanover Park, Ill.). HEPES (Catalog number 15630-080) was purchased from Life Technologies (Pleasanton, Calif.), and Tween-20 (Catalog number 95059-250) was purchased from VWR (Radnor, Pa.). Method Inhibition of SHP-2 activity by small molecule inhibitors was monitored by a biochemical DiFMUP pseudosubstrate-fluorogenic assay. […] The reaction mix was added to the 384-well non-binding plate which had been pre-spotted with 1:3 serial diluted compounds from 10,000-0.005 nM, and incubated at room temperature for 90 min. DiFMUP substrate at final concentration of 50 μM was then added to the wells and incubated for additional 30 min at room temperature. The final reaction volume was 20 μl/well. […] The inhibitor dose response curves were generated using normalized IC50 regression curve fitting by in house dose response analysis tools. The wells with DMSO vehicle were used as controls (100% signal). The percent (%) control of SHP-2 compound was calculated as: (Compound well fluorescence counts/DMSO fluorescence counts)×100%.

SMILES | EC50 (NCI-H358 cells) [µM] | IC50 [1] [µM] | EC50 (NCI-H358 cells; Homo sapiens, NCI-H358, 168 h) [µM]
Cc1nc(N2CCC3(CCC[C@H]3N)CC2)n2ccnc2c1-c1cccc(Cl)c1Cl (single isomer, unassigned) [Example 10] | 0.97 | 0.052 | –
Cc1nc(N2CCC3(CC2)CO[C@@H](C)[C@H]3N)n2ccnc2c1-c1cccc(Cl)c1Cl [Example 1, (3S,4S)-8-(8-(2,3-dichlorophenyl)-7-methylimidazo[1,2-c]pyrimidin-5-yl)-3-methyl-2-oxa-8-azaspiro[4.5]decan-4-amine] | – | 0.0028 | 0.059
Cc1nc(N2CCC3(CCC[C@H]3N)CC2)n2ccnc2c1-c1ccccc1 [Example 5, (R)-8-(7-methyl-8-phenylimidazo[1,2-c]pyrimidin-5-yl)-8-azaspiro[4.5]decan-1-amine] | – | 0.09 | 0.67
Cc1nc(N2CCC3(CCC[C@H]3N)CC2)n2ccnc2c1-c1cccc(Cl)c1Cl [Example 9, (R)-8-(8-(2,3-dichlorophenyl)-7-methylimidazo[1,2-c]pyrimidin-5-yl)-8-azaspiro[4.5]decan-1-amine] | – | 0.0041 | 0.12
Cc1nc(N2CCC3(CCC[C@H]3N)CC2)n2ccnc2c1-c1cnn(C)c1C [Example 13, (R)-8-(8-(1,5-dimethyl-1H-pyrazol-4-yl)-7-methylimidazo[1,2-c]pyrimidin-5-yl)-8-azaspiro[4.5]decan-1-amine] | – | 1 | 3.3
Cc1nc(N2CCC3(CCC[C@H]3N)CC2)n2ccnc2c1-c1ccnc(F)c1Cl [Example 28, (R)-8-(8-(3-chloro-2-fluoropyridin-4-yl)-7-methylimidazo[1,2-c]pyrimidin-5-yl)-8-azaspiro[4.5]decan-1-amine] | – | 0.074 | 0.38
C[C@@H]1OCC2(CCN(c3ncc(Sc4ccnc(N)c4Cl)c4nccn34)CC2)[C@@H]1N [Example 31, (3S,4S)-8-(8-((2-amino-3-chloropyridin-4-yl)thio)imidazo[1,2-c]pyrimidin-5-yl)-3-methyl-2-oxa-8-azaspiro[4.5]decan-4-amine] | – | 0.005 | 0.053
Cc1nc(N2CCC3(CC2)C[C@@H](O)C[C@H]3N)n2ccnc2c1-c1cccc(Cl)c1Cl [Example 33, (2R,4R)-4-amino-8-(8-(2,3-dichlorophenyl)-7-methylimidazo[1,2-c]pyrimidin-5-yl)-8-azaspiro[4.5]decan-2-ol] | – | 0.0031 | 0.032
N[C@@H]1C[C@H](O)CC12CCN(c1ncc(Sc3cccc(Cl)c3Cl)c3nccn13)CC2 [Example 35, (2R,4R)-4-amino-8-(8-((2,3-dichlorophenyl)thio)imidazo[1,2-c]pyrimidin-5-yl)-8-azaspiro[4.5]decan-2-ol] | – | 0.0012 | 0.032
C[C@@H]1OCC2(CCN(c3ncc(Sc4cc(N)ncc4C(F)(F)F)c4nccn34)CC2)[C@@H]1N [Example 38, (3S,4S)-8-(8-((2-amino-5-(trifluoromethyl)pyridin-4-yl)thio)imidazo[1,2-c]pyrimidin-5-yl)-3-methyl-2-oxa-8-azaspiro[4.5]decan-4-amine] | – | 0.0059 | 0.059
N[C@@H]1CCCC12CCN(c1ncc(Sc3cccc(Cl)c3Cl)c3nccn13)CC2 [Example 44, (R)-8-(8-((2,3-dichlorophenyl)thio)imidazo[1,2-c]pyrimidin-5-yl)-8-azaspiro[4.5]decan-1-amine] | – | 0.0028 | 0.13
Cc1nc(N2CCC3(CC2)Cc2cc(F)ccc2[C@H]3N)n2ccnc2c1-c1cccc(Cl)c1Cl [Example 133, (S)-1′-(8-(2,3-dichlorophenyl)-7-methylimidazo[1,2-c]pyrimidin-5-yl)-5-fluoro-1,3-dihydrospiro[indene-2,4′-piperidin]-1-amine] | – | – | 0.021
Nc1cccc(Sc2cnc(N3CCC4(CC3)Cc3ccccc3[C@H]4N)n3ccnc23)c1Cl [Example 137, (S)-1′-(8-((3-amino-2-chlorophenyl)thio)imidazo[1,2-c]pyrimidin-5-yl)-1,3-dihydrospiro[indene-2,4′-piperidin]-1-amine] | – | – | 0.012

Next, values leading:

EC50 (NCI-H358 cells) [µM] | IC50 [1] [µM] | EC50 (NCI-H358 cells; Homo sapiens, NCI-H358, 168 h) [µM] | SMILES
0.06 | 0.0036 | – | Cc1nc(N2CCC3(CCC[C@H]3N)CC2)n2ccnc2c1-c1cccc(Cl)c1Cl (single isomer, unassigned) [Example 11]
– | 0.047 | 0.59 | Cc1nc(N2CCC3(CCC[C@H]3N)CC2)n2ccnc2c1-c1cccc2[nH]ccc12 [Example 2, (R)-8-(8-(1H-indol-4-yl)-7-methylimidazo[1,2-c]pyrimidin-5-yl)-8-azaspiro[4.5]decan-1-amine]
– | 1.3 | > 12.5 | Cc1nc(N2CCC3(CCC[C@H]3N)CC2)n2ccnc2c1-c1cccc(C(F)(F)F)c1 [Example 7, (R)-8-(7-methyl-8-(3-(trifluoromethyl)phenyl)imidazo[1,2-c]pyrimidin-5-yl)-8-azaspiro[4.5]decan-1-amine]
– | 0.09 | 0.42 | Cc1nc(N2CCC3(CCC[C@H]3N)CC2)n2ccnc2c1-c1sccc1Cl [Example 12, (R)-8-(8-(3-chlorothiophen-2-yl)-7-methylimidazo[1,2-c]pyrimidin-5-yl)-8-azaspiro[4.5]decan-1-amine]
– | 0.35 | 3.2 | Cc1nc(N2CCC3(CCC[C@H]3N)CC2)n2ccnc2c1-c1cnc2ccccn12 [Example 15, (R)-8-(8-(imidazo[1,2-a]pyridin-3-yl)-7-methylimidazo[1,2-c]pyrimidin-5-yl)-8-azaspiro[4.5]decan-1-amine]
– | 0.0056 | 0.075 | Cc1nc(N2CCC3(CCC[C@H]3N)CC2)n2ccnc2c1Sc1ccnc(N)c1Cl [Example 18, (R)-8-(8-((2-amino-3-chloropyridin-4-yl)thio)-7-methylimidazo[1,2-c]pyrimidin-5-yl)-8-azaspiro[4.5]decan-1-amine]
– | 0.16 | 1.5 | Cc1nc(N2CCC3(CCC[C@H]3N)CC2)n2ccnc2c1-c1cccc(Cl)c1 [Example 23, (R)-8-(8-(3-chlorophenyl)-7-methylimidazo[1,2-c]pyrimidin-5-yl)-8-azaspiro[4.5]decan-1-amine]
– | 0.095 | 1.5 | Cc1nc(N2CCC3(CCC[C@H]3N)CC2)n2ccnc2c1-c1ccc(Cl)c(Cl)c1 [Example 25, (R)-8-(8-(3,4-dichlorophenyl)-7-methylimidazo[1,2-c]pyrimidin-5-yl)-8-azaspiro[4.5]decan-1-amine]
– | 0.025 | 0.36 | Cc1nc(N2CCC3(CCC[C@H]3N)CC2)n2ccnc2c1-c1ccc(Cl)cc1Cl [Example 26, (R)-8-(8-(2,4-dichlorophenyl)-7-methylimidazo[1,2-c]pyrimidin-5-yl)-8-azaspiro[4.5]decan-1-amine]
– | 1.3 | 5.5 | Cc1nc(N2CCC3(CCC[C@H]3N)CC2)n2ccnc2c1-c1ccnc(N)c1Cl [Example 29, (R)-8-(8-(2-amino-3-chloropyridin-4-yl)-7-methylimidazo[1,2-c]pyrimidin-5-yl)-8-azaspiro[4.5]decan-1-amine]
– | 0.19 | 3.2 | NC1CC2CN(c3ncc(Sc4cccc(Cl)c4Cl)c4nccn34)CC2C1 (centres unmarked) [Example 40, 2-(8-((2,3-dichlorophenyl)thio)imidazo[1,2-c]pyrimidin-5-yl)octahydrocyclopenta[c]pyrrol-5-amine]
– | 0.15 | 3.2 | NCC1CC2CN(c3ncc(Sc4cccc(Cl)c4Cl)c4nccn34)CC2C1 (centres unmarked) [Example 41, (2-(8-((2,3-dichlorophenyl)thio)imidazo[1,2-c]pyrimidin-5-yl)octahydrocyclopenta[c]pyrrol-5-yl)methanamine]
– | 0.08 | 1.3 | NC[C@H]1[C@H]2CN(c3ncc(Sc4cccc(Cl)c4Cl)c4nccn34)C[C@@H]12 [Example 42, ((1R,5S,6r)-3-(8-((2,3-dichlorophenyl)thio)imidazo[1,2-c]pyrimidin-5-yl)-3-azabicyclo[3.1.0]hexan-6-yl)methanamine]
